Reference: ChEMBL document CHEMBL3872219, “Computational and synthetic approaches for developing Lavendustin B derivatives as allosteric inhibitors of HIV-1 integrase” (Eur J Med Chem, 2016)
Active and inactive are the calls of the source. No cut-off for these calls is given here.

Key:
[1] = Inhibition of His-tagged LEDGF/p75 (unknown origin) dependent FLAG or His-tagged HIV1 integrase activity expressed in Escherichia coli BL21(DE3) using 32-mer blunt-ended U5 viral donor DNA and pBR322 target DNA preincubated for 5 mins followed by LEDGF/p75 addition measured after 90 mins by agarose gel electrophoresis
[2] = Inhibition of HIV1 His-tagged integrase/His-tagged LEDGF/p75 (unknown origin) interaction expressed in Escherichia coli BL21(DE3) preincubated for 30 mins with viral integrase followed by LEDGF/p75 addition measured after 30 mins by HTRF assay
[3] = Inhibition of FLAG or His-tagged HIV1 integrase 3' processing activity expressed in Escherichia coli BL21(DE3) using [32P]-labeled blunt ended 21-mer or recessed ended 19-mer double stranded U5 DNA as substrate preincubated for 30 mins followed by substrate addition measured after 1 hr by polyacrylamide gel electrophoresis; set-up: species or system Human immunodeficiency virus 1
[4] = Cytotoxicity against HEK293T cells assessed as reduction in cell viability; format: toxicity, cell-based; settings: human, hek-293t
[5] = system: Human immunodeficiency virus 1; assay: Antiviral activity against VSV-g pseudotyped HIV1 infected in HEK293T cells incubated for 2 hrs prior to viral infection followed by compound wash out at 2 hrs post infection and subsequent compound readdition measured after 48 hrs by luciferase reporter gene assay; format: functional, cell-based; settings: HEK-293T

Row | SMILES | IC50 [1] | IC50 [2] | IC50 [3] | Activity [4] | Activity [5]
1 | O=C(O)c1cc(N(Cc2ccccc2Cl)Cc2ccccc2Cl)ccc1O | 3.78 µM | 3.28 µM | 25.6 µM | Toxic | Active
2 | O=C(O)c1cc(N(Cc2ccccc2F)Cc2ccccc2F)ccc1O | 9 µM | 17.8 µM | 63.1 µM |  | 
3 | Cc1ccccc1CN(Cc1ccccc1C)c1ccc(O)c(C(=O)O)c1 | 14.7 µM | 27.6 µM | > 70 µM |  | 
4 | O=C(O)c1cc(N(Cc2cccc(F)c2)Cc2cccc(F)c2)ccc1O | 18.5 µM | 20.8 µM | 68.6 µM |  | 
5 | O=C(O)c1cc(N(Cc2ccccc2)Cc2ccccc2)ccc1O | 7.93 µM | 8.75 µM | 70 µM |  | 
6 | O=C(O)c1cc(N(Cc2cccc(Cl)c2)Cc2cccc(Cl)c2)ccc1O | 13.5 µM | 19.5 µM | > 70 µM |  | 
